# Measurements from ChEMBL document CHEMBL3399964, “Nine new diterpenes from the leaves of plantation-grown Cunninghamia lanceolata” (2015).
# Counter-ions that a name gives are not always drawn.
# Assay: Growth inhibition of human PC3 cells by colorimetric MTT assay
# Format: functional
# Settings: PC-3
row,SMILES,GI50 [µM]
1,C=CC(=C)[C@@H](C[C@H]1C(=C)CC[C@H]2[C@](C)(CO)CCC[C@]12C)OO,34.4
2,COc1ccc(-c2cc(=O)c3c(O)cc(O)c(-c4cc(-c5cc(=O)c6c(O)cc(O)cc6o5)ccc4O)c3o2)cc1 [PODOCARPUSFLAVONE A],> 100
3,COc1cccc2c1C(=O)c1c(O)c3c(c(O)c1C2=O)C[C@@](O)(C(=O)CO)C[C@@H]3O[C@H]1C[C@H](N)[C@H](O)[C@H](C)O1 [DOXORUBICIN HYDROCHLORIDE],1.1
4,COc1cc(O)c2c(=O)cc(-c3ccc(O)c(-c4c(O)cc(O)c5c(=O)cc(-c6ccc(O)cc6)oc45)c3)oc2c1 [SEQUOIAFLAVONE],43.3
5,C=C/C(C)=C/[C@@H](OC(C)=O)[C@H]1C(=C)CC[C@@H]2[C@]1(C)CCC[C@@]2(C)C(=O)O,57.2
6,C=C/C(C)=C/C[C@H]1C(=C)CC[C@@H]2[C@]1(C)CCC[C@@]2(C)C(=O)O,> 100
7,C=CC(=C)[C@@H](C[C@H]1C(=C)CC[C@@H]2[C@]1(C)CCC[C@@]2(C)C(=O)O)OO,38
8,C=CC(=C)[C@H](C[C@H]1C(=C)CC[C@H]2[C@](C)(CO)CCC[C@]12C)OO,50.9
9,C=C/C(C)=C/C[C@H]1C(=C)CC[C@H]2[C@](C)(CO)CCC[C@]12C,35
10,C=CC(=C)CC[C@@H]1[C@@]2(C)CCC[C@](C)(COC(=O)/C=C\c3ccccc3)[C@@H]2CC[C@@]1(C)O,> 100
11,CC(C)c1cc2c3c(c1O)O[C@@H]1CCC(C)(C)[C@H](CC2)[C@@]31C,27.4
12,C=C/C(C)=C/[C@@H](OC(C)=O)[C@H]1C(=C)CC[C@@H]2[C@]1(C)CCC[C@@]2(C)C(=O)OC,58.3
13,Cc1cc2c(C(C)C)ccc(C)c2cc1O,54
14,C=CC(=C)CC[C@@H]1[C@@]2(C)CCC[C@](C)(COC(=O)/C=C/c3ccccc3)[C@@H]2CC[C@@]1(C)O,10.6
15,C=CC(=C)[C@H](C[C@H]1C(=C)CC[C@@H]2[C@]1(C)CCC[C@@]2(C)C(=O)O)OO,> 100
